Reference: patent US6432671B1 (priority 1996, dated 2002)

Tested on: tryparedoxin I
Assay type: biochemical, Crithidia fasciculata

CCN1C(=O)C=CC1=O [NEM, N-ethylmaleimide]
residual activity [%]: 24 ± 5%
